Test results reported in patent publication US20160339074A1, “PHARMACEUTICAL COMPOSITION OF SELECTIVE HCV NS3/4A INHIBITORS” (MERCK SHARP & DOHME CORP., priority 2014, published 2016).
Values after ≈ are worked out from the molar mass of the structure shown. Where two headings read alike, the source gives them in different places.

Key:
log D of Compound 1 = type: physicochemical; conditions: pH 7, pH=7
Aqueous solubility = type: physicochemical; conditions: aqueous medium (not further specified)
[1] = TM/TG ratio (crystallization tendency); type: physicochemical; conditions: based on the most stable crystalline phase known
[2] = thermodynamic from solid

C=C[C@@H]1C[C@]1(NC(=O)[C@@H]1C[C@@H]2CN1C(=O)[C@H](C(C)(C)C)NC(=O)O[C@@H]1C[C@H]1CCCCCc1nc3ccc(OC)cc3nc1O2)C(=O)NS(=O)(=O)C1CC1 [Compound 1, (1aR,5S,8S,10R,22aR)-5-tert-butyl-N-{(1R,2S)-1-[(cyclopropylsulfonyl)carbamoyl]-2-ethenylcyclopropyl}-14-methoxy-3,6-dioxo-1,1a,3,4,5,6,9,10,18,19,20,21,22,22a-tetradecahydro-8H-7,10-methanocyclopropa[18,19][1,10,3,6]dioxadiazacyclononadecino[11,12-b]quinoxaline-8-carboxamide]
logD (log D of Compound 1): 3
solubility (Aqueous solubility): < 50 µg/mL
TM/TG ratio [1]: 1.12
solubility at 2 h ([2]; simulated fasted state intestinal fluid, fassif): 50 µg/mL (≈ 65.2 µM)
solubility at 2 h ([2]; simulated gastric fluid): < 3 µg/mL
